Assay results: patent US20260085071A1, “NOVEL CRYSTALLINE FORM OF 1-(8-BROMOPYRIDO[2,3- E][1,2,4]TRIAZOLO[4,3-A]PYRAZIN-4-YL)-NMETHYLAZETIDIN- 3-AMINE” (JW PHARMACEUTICAL CORPORATION, priority 2022, published 2026)

Tests used:
histamine 4 receptor = histamine 4 receptor (Homo sapiens, UniProt Q9H3N8); settings: background statement, U.S. Pat. No. 9,586,959; cited from earlier work
[1] = tested on: inflammatory cells such as mast cells and eosinophils; settings: background statement, U.S. Pat. No. 9,586,959; cited from earlier work
[2] = Thermodynamic (thermal) stability of crystalline form; type: physicochemical; settings: solid crystalline form
Method: TGA experiments were conducted using a TGA550 instrument from TA Instruments. About 1-10 mg of sample was loaded into a ceramic pan for the measurements. The sample temperature was ramped from 25 to 500° C. at 10° C./min. Nitrogen was used as the purge gas at a flow rate of 50 mL/min.
DSC: Heating rate of 10° C./min under a nitrogen atmosphere. About 1-2 mg of sample was loaded into an open aluminum pan for the measurements. Instrument Q20 from TA Instruments.

[3] = Stress testing at high temperature and high humidity; type: physicochemical; settings: high temperature (60° C.) and high humidity (75%) for 4 weeks
[4] = Stability of polymorphic form during gentle drying; type: physicochemical; settings: pure polymorphic forms from crystallization experiments

thermodynamically stable up to [2]	stability during stress testing [3]	stability during gentle drying [4]	Compound	histamine 4 receptor inhibitory effect (histamine 4 receptor)	effects against histamine induced infiltration of inflammatory cells [1]
			CNC1CN(c2nc3ncc(Br)cc3n3cnnc23)C1 [1-(8-bromopyrido[2,3-e][1,2,4]triazolo[4,3-a]pyrazin-4-yl)-N-methylazetidin-3-amine]	strong	suppressive effects
up to 273 °C	stable	stable	CNC1CN(c2nc3ncc(Br)cc3n3cnnc23)C1 [Form A, 1-(8-bromopyrido[2,3-e][1,2,4]triazolo[4,3-a]pyrazin-4-yl)-N-methylazetidine-3-amine]		
